Assay results: patent US7476764B2, “Phenylcarboxyamides as beta-secretase inhibitors” (Bristol-Myers Squibb Company, priority 2005, dated 2009)
Where a name gives a salt, the structure may show the parent alone.

Target: T1, BACE1 enzyme (Homo sapiens, UniProt P56817)
T1 construct: The HEK293-9B.A1 cell line, which overexpresses the BACE1 enzyme, was derived from HEK293 cells; endogenous in cells; washed 48,000 x g pellet of the cell homogenate
Test: Radioligand displacement assay with a radiolabeled BACE inhibitor on HEK293-9B.A1 cell homogenate
Type: binding
Details: not given
Description: Radioligand displacement assays with a radiolabeled BACE inhibitor (WO 2004 013098, compound 3, where the methoxy group is substituted for C(^3H)3) were carried out using standard methods (Keen, M. (1999) in Receptor Binding Techniques (Walker, J. M. ed) p. 106 Humana Press, Totowa, N.J.). The HEK293-9B.A1 cell line, which overexpresses the BACE1 enzyme, was derived from HEK293 cells (Simmons, N. L. (1990) A cultured human renal epitheloid cell line responsive to vasoactive intestinal peptide. Exp. Physiol. 75:309-19.) by RAGE™ (Harrington, J. J. et al. (2001) Creation of genome-wide protein expression libraries using random activation of gene expression. Nat. Biotechnol. 19:440-5; U.S. Pat. Nos. 6,410,266 and 6,361,972). T225 flask cultures of HEK293-9B.A1 were grown to 80% confluency in DMEM supplemented with 2 mM L-glutamine, 10 μg/ml penicillin, 10 μg/ml streptomycin, 3 μg/ml puromycin, 100 nM methotrexate, and 10% fetal bovine serum (Invitrogen, Carlsbad, Calif.), harvested, and resuspended at 2×10^8 cells per 10 ml of lysis buffer consisting of 50 mM HEPES pH 7.0 containing a protease inhibitor cocktail of AEBSF 104 μM, aprotinin 80 nM, leupeptin 2 μM, bestatin 4 μM, pepstatin A 1.5 μM, and E-64 1.4 μM (0.1% of protease inhibitor cocktail P8340, Sigma-Aldrich, St. Louis, Mo.) at 4° C. The resuspended cells were homogenized using a Polytron (Brinkman, Westbury, N.Y.) at setting 6 for 10 sec., then centrifuged at 48,000×g for 10 min. The resulting pellet was washed by repeating the resuspension, homogenization and centrifugation steps. The final pellet was resuspended in buffer at 4° C. to yield a total protein concentration of 5 mg/ml, then aliquots were frozen in liquid nitrogen for further storage at −70° C. Immediately before carrying out a binding assay, an aliquot of cell homogenate was thawed and diluted to a concentration of 100 μg/ml in assay buffer consisting of 50 mM HEPES pH 5.0 and 0.1% CHAPSO. Assays were initiated in polypropylene 96-well plates (Costar, Cambridge, Mass.) by the addition of 200 μl of cell homogenate to 50 μl of assay buffer containing 1 nM radioligand (WO 2004 013098, compound 3, where the methoxy group is substituted for C(^3H)3: 80 Ci/mMol) and various concentrations of unlabelled compounds, and incubated for 1.5 hr. at 25° C. Separation of bound from free radioligand was by filtration on GFF glass fiber filters (Innotech Biosystems International, Lansing, Mich.) using an Innotech cell harvester.

T1 sequence (P56817 46-501): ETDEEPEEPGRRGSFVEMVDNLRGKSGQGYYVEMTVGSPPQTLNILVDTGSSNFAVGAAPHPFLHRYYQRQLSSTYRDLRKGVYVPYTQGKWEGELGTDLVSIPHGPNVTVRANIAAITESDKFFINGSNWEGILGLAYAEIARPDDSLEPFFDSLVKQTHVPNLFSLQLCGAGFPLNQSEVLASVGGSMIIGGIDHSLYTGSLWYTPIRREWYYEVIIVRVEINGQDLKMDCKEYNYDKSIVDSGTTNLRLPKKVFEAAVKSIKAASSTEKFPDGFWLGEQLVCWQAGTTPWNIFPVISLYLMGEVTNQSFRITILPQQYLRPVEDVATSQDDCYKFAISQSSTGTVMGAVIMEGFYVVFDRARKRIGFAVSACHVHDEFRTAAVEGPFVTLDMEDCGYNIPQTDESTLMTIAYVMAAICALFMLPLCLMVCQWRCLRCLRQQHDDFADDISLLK

`COc1cccc(CNC[C@@H](O)[C@H](Cc2cc(F)cc(F)c2)NC(=O)c2cc(C(=O)N[C@H](C)c3ccccc3)cc(C(C)O)c2)c1` (stereo partly drawn) [Example 45, N^1-((2S,3R)-4-(3-methoxybenzylamino)-1-(3,5-difluorophenyl)-3-hydroxybutan-2-yl)-5-(1-hydroxyethyl)-N^3-((R)-1-phenylethyl)isophthalamide TFA salt] and `C=CCO/N=C(/C)c1cc(C(=O)N[C@@H](Cc2cc(F)cc(F)c2)[C@H](O)CNCc2cccc(OC)c2)cc(C(=O)N[C@H](C)c2ccccc2)c1` [Example 46, N^1-((2S,3R)-4-(3-methoxybenzylamino)-1-(3,5-difluorophenyl)-3-hydroxybutan-2-yl)-5-((Z)-1-(allyloxyimino)ethyl)-N^3-((R)-1-phenylethyl)isophthalamide TFA salt] cannot be ordered by IC50: under 100 nM for the first, under 100 nM for the second.

Same assay, conditions: displacement of 1 nM tritiated radioligand, HEK293-9B.A1 homogenate, pH 5.0, 1.5 hr at 25° C.; read-out: Activity Rating (activity based on IC50 values)

`C=CCO/N=C(\C)c1cc(C(=O)N[C@@H](Cc2cc(F)cc(F)c2)[C@H](O)CNCc2cccc(OC)c2)cc(N2CCCCS2(=O)=O)c1` [Example 28, N-[(1S,2R)-1-(3,5-difluoro-benzyl)-2-hydroxy-3-(3-methoxy-benzylamino)-propyl]-3-(1,1-dioxo-1λ^6-[1,2]thiazinan-2-yl)-5-{1-[(E)-allyloxyimino]-ethyl}-benzamide TFA salt] and `C=CCO/N=C(\C)c1cc(C(=O)N[C@@H](Cc2cc(F)cc(F)c2)[C@H](O)CNCc2cccc(OC)c2)cc(N(C)S(C)(=O)=O)c1` [Example 34, N-((2S,3R)-4-(3-methoxybenzylamino)-1-(3,5-difluorophenyl)-3-hydroxybutan-2-yl)-3-((E)-1-(allyloxyimino)ethyl)-5-(N-methylmethan-2-ylsulfonamido)benzamide TFA salt] cannot be ordered by IC50: under 100 nM for the first, under 100 nM for the second.

First: COc1cccc(CNC[C@@H](O)[C@H](Cc2cc(F)cc(F)c2)NC(=O)c2cc(C(C)=O)cc(N(C)S(C)(=O)=O)c2)c1 [Example 29, N-((2S,3R)-4-(3-methoxybenzylamino)-1-(3,5-difluorophenyl)-3-hydroxybutan-2-yl)-3-acetyl-5-(N-methylmethan-2-ylsulfonamido)benzamide TFA salt]
Second: CO/N=C(\C)c1cc(C(=O)N[C@@H](Cc2cc(F)cc(F)c2)[C@H](O)CNCc2cccc(OC)c2)cc(N(C)S(C)(=O)=O)c1 [Example 30, N-((2S,3R)-4-(3-methoxybenzylamino)-1-(3,5-difluorophenyl)-3-hydroxybutan-2-yl)-3-((E)-1-(methoxyimino)ethyl)-5-(N-methylmethan-2-ylsulfonamido)benzamide TFA salt]
The IC50 of the first is higher: 100 to 1000 nM for the first, under 100 nM for the second.

`COc1cccc(CNC[C@@H](O)[C@H](Cc2cc(F)cc(F)c2)NC(=O)c2cc(/C(C)=N/OCc3ccccc3)cc(N(C)S(C)(=O)=O)c2)c1` [Example 31, N-((2S,3R)-4-(3-methoxybenzylamino)-1-(3,5-difluorophenyl)-3-hydroxybutan-2-yl)-3-((E)-1-(benzyloxyimino)ethyl)-5-(N-methylmethan-2-ylsulfonamido)benzamide TFA salt] and `COc1cccc(CNC[C@@H](O)[C@H](Cc2cc(F)cc(F)c2)NC(=O)c2cc(/C(C)=N/OCc3ccccc3)cc(N(c3ccccc3)S(C)(=O)=O)c2)c1` [Example 39, N-((2S,3R)-4-(3-methoxybenzylamino)-1-(3,5-difluorophenyl)-3-hydroxybutan-2-yl)-3-((E)-1-(benzyloxyimino)ethyl)-5-(N-phenylmethan-10-ylsulfonamido)benzamide] cannot be ordered by IC50: under 100 nM for the first, under 100 nM for the second.

`CCCO/N=C(\C)c1cc(C(=O)N[C@@H](Cc2cc(F)cc(F)c2)[C@H](O)CNCc2cccc(OC)c2)cc(N(C)S(C)(=O)=O)c1` [Example 32, N-((2S,3R)-4-(3-methoxybenzylamino)-1-(3,5-difluorophenyl)-3-hydroxybutan-2-yl)-3-((E)-1-(propoxyimino)ethyl)-5-(N-methylmethan-2-ylsulfonamido)benzamide TFA salt] and `COc1cccc(CNC[C@@H](O)[C@H](Cc2cc(F)cc(F)c2)NC(=O)c2cc(/C(C)=N/OCC(C)C)cc(N(C)S(C)(=O)=O)c2)c1` [Example 33, N-((2S,3R)-4-(3-methoxybenzylamino)-1-(3,5-difluorophenyl)-3-hydroxybutan-2-yl)-3-((E)-1-(isobutoxyimino)ethyl)-5-(N-methylmethan-2-ylsulfonamido)benzamide TFA salt] fall in the same range of IC50: 100 to 1000 nM for the first, 100 to 1000 nM for the second.

`COc1cccc(CNC[C@@H](O)[C@H](Cc2cc(F)cc(F)c2)NC(=O)c2cc(C(C)O)cc(N(C)S(C)(=O)=O)c2)c1` (stereo partly drawn) [Example 35, N-((2S,3R)-4-(3-methoxybenzylamino)-1-(3,5-difluorophenyl)-3-hydroxybutan-2-yl)-3-(1-hydroxyethyl)-5-(N-methylmethan-2-ylsulfonamido)benzamide TFA salt] and `COc1cccc(CNC[C@@H](O)[C@H](Cc2cc(F)cc(F)c2)NC(=O)c2cc(C(C)O)cc(N(c3ccccc3)S(C)(=O)=O)c2)c1` (stereo partly drawn) [Example 40, N-((2S,3R)-4-(3-methoxybenzylamino)-1-(3,5-difluorophenyl)-3-hydroxybutan-2-yl)-3-(1-hydroxyethyl)-5-(N-phenylmethan-10-ylsulfonamido)benzamide] cannot be ordered by IC50: under 100 nM for the first, under 100 nM for the second.

`COc1cccc(CNC[C@@H](O)[C@H](Cc2cc(F)cc(F)c2)NC(=O)c2cc(C(C)=O)cc(N(c3ccccc3)S(C)(=O)=O)c2)c1` [Example 36, N-((2S,3R)-4-(3-methoxybenzylamino)-1-(3,5-difluorophenyl)-3-hydroxybutan-2-yl)-3-acetyl-5-(N-phenylmethan-10-ylsulfonamido)benzamide TFA salt] and `COc1cccc(CNC[C@@H](O)[C@H](Cc2cc(F)cc(F)c2)NC(=O)c2cc(/C(C)=N/O)cc(N(c3ccccc3)S(C)(=O)=O)c2)c1` [Example 37, N-((2S,3R)-4-(3-methoxybenzylamino)-1-(3,5-difluorophenyl)-3-hydroxybutan-2-yl)-3-((E)-1-(hydroxyimino)ethyl)-5-(N-phenylmethan-10-ylsulfonamido)benzamide] cannot be ordered by IC50: under 100 nM for the first, under 100 nM for the second.

`CO/N=C(\C)c1cc(C(=O)N[C@@H](Cc2cc(F)cc(F)c2)[C@H](O)CNCc2cccc(OC)c2)cc(N(c2ccccc2)S(C)(=O)=O)c1` [Example 38, N-((2S,3R)-4-(3-methoxybenzylamino)-1-(3,5-difluorophenyl)-3-hydroxybutan-2-yl)-3-((E)-1-(methoxyimino)ethyl)-5-(N-phenylmethan-10-ylsulfonamido)benzamide] and `CCCO/N=C(\C)c1cc(C(=O)N[C@@H](Cc2cc(F)cc(F)c2)[C@H](O)CNCc2cccc(OC)c2)cc(N(c2ccccc2)S(C)(=O)=O)c1` [Example 43, N-((2S,3R)-4-(3-methoxybenzylamino)-1-(3,5-difluorophenyl)-3-hydroxybutan-2-yl)-3-(N-phenylmethan-10-ylsulfonamido)-5-((E)-1-(propoxyimino)ethyl)benzamide] cannot be ordered by IC50: under 100 nM for the first, under 100 nM for the second.

Compared with `COc1cccc(CNC[C@@H](O)[C@H](Cc2cc(F)cc(F)c2)NC(=O)c2cc(/C(C)=N/OCC(C)C)cc(N(c3ccccc3)S(C)(=O)=O)c2)c1` [Example 41, N-((2S,3R)-4-(3-methoxybenzylamino)-1-(3,5-difluorophenyl)-3-hydroxybutan-2-yl)-3-((E)-1-(isobutoxyimino)ethyl)-5-(N-phenylmethan-10-ylsulfonamido)benzamide], `C=CCO/N=C(\C)c1cc(C(=O)N[C@@H](Cc2cc(F)cc(F)c2)[C@H](O)CNCc2cccc(OC)c2)cc(N(c2ccccc2)S(C)(=O)=O)c1` [Example 42, N-((2S,3R)-4-(3-methoxybenzylamino)-1-(3,5-difluorophenyl)-3-hydroxybutan-2-yl)-3-((E)-1-(allyloxyimino)ethyl)-5-(N-phenylmethan-10-ylsulfonamido)benzamide] is lower in IC50: 100 to 1000 nM for the first, under 100 nM for the second.

For `COc1cccc(CNC[C@@H](O)[C@H](Cc2cc(F)cc(F)c2)NC(=O)c2cc(C(C)=O)cc(C(=O)N[C@H](C)c3ccccc3)c2)c1` [Example 44, N^1-((2S,3R)-4-(3-methoxybenzylamino)-1-(3,5-difluorophenyl)-3-hydroxybutan-2-yl)-5-acetyl-N^3-((R)-1-phenylethyl)isophthalamide TFA salt], the IC50 was under 100 nM.
